Data from patent publication US20190169620A1, “Treatment of HER2-Dependent Cancers by SORL1 Inhibition” (TURUN YLIOPISTO, priority 2017, published 2019).
Entries after “also recorded” stand apart in the source; their conditions may differ.

Experiments:
[1] = tested on: 5637 bladder cancer cells; assay: Colony formation assay of SORLA silenced 5637 treated with CADs; format: cell-based; conditions: drug for 7 days combined with SORLA silencing
Description: Transient SORLA (with two individual siRNAs) or scramble silencing was performed for 5637 bladder cancer cells. After 48 hours of silencing, 20 000 cells per well were plated on colony formation assay on 12-well plate. […] DMSO was used as control. Cells were treated for 7 days and drugs including media was replenished between 3-4 days of culture. After 7 days, cells were stained with 0.2% Crystal Violet in 10% EtOH for 10 min RT. Cells were washed extensively with PBS and dried. Wells were scanned and confluency was measured by using Image J colony area plug-in.

[2] = tested on: HER2-amplified breast cancer cells
Description: Transient SORLA (with two individual siRNAs) or scramble silencing was performed for 5637 bladder cancer cells. After 48 hours of silencing, 3000 cells per well were plated on 96-well plate. Cells were treated with increasing concentration of Ebastine and Loratadine for 48 hours. After 48 hours of treatment, WST-8 reagent (Sigma, 96992) was added 10 μl/well and absorbance 450 nm was measured by plate reader after 1-2 h of incubation at 37° C. with 5% CO2. Medium without cells was used as background and the A450 of background was subtracted from the samples. Relative viability was calculated by normalizing the A450 values of drug treated to DMSO treated cells. IC50 values were calculated by GraphPad using nonlinear regression to fit the data to the log(inhibitor) vs. response (variable slope) curve.

[3] = tested on: MDA-MB-361 cells; assay: Proliferation assay (WST-8), MDA-MB-361; format: cell-based; conditions: MDA-MB-361, lapatinib treated
Description: Cells were plated on 96-well plate (3000 cells/well, 4 replicates per sample) in volume of 100 μl.
Transfection of siRNAs to silence SORLA or HER2 protein expression: Cells were seeded on 6-well plate day before the transfection (300 000-500 000 cells/well). On next day, transfection mix containing siRNA (20-40 nM of targeting SORLA, 40 nM of HER2 targeting siRNA and 20-40 nM scramble siRNA) and RNAiMAX transfection reagent (Manufacturer) in OptiMEM medium was prepared. The mix was allowed to stand for 15 min at room temperature before adding to the cells on 6 well plate. After 48 hours of transfection cells were used for experiments.

[4] = tested on: BT474 cells; assay: Cell cycle analysis (propidium iodide, flow cytometry); format: cell-based; conditions: BT474, 0.5 μM lapatinib for 24 hours; stated as the effect SORLA silencing mimics
Description: BT474 transfected with control siRNA and with two individual siRNA against SORLA (#3 and #4) and BT474 treated with DMSO or with 0.5 μM Lapatinib for 24 hours were trypsinized, spun down and suspended in ice cold PBS (1 ml). Cells were fixed with 70% EtOH (ice cold) by adding 3 ml of 70% EtOH in dropwise manner while gently vortexin the cells. Cells were then stored at +4° C. until propidium iodide (PI) staining was performed. PI (Sigma) staining was performed by preparing 25 μg/ml PI solution in PBS with RNAase A (Qiagen). Cells were washed twice with PBS. After that cells were suspended in PI solution and incubated 10 minutes on ice. Samples were protected from light and kept on ice until flow cytometry analysis. Samples were run with LSR II and cell cycle analysis was performed with FlowJo.

[5] = tested on: TFEB and LAMP1; assay: Western blot analysis of TFEB and LAMP1 protein levels; format: cell-based; conditions: SKBR3, lapatinib treatment (24 h)
Description: Protein extracts were sonicated (0.5 min ON/0.5 min OFF totally 5 min with full power) and protein levels were measured by Bio-Rad protein quantification kit. Sample buffer was added and samples were boiled for 5 min at 95° C. heat block. Proteins were separated on 4-20% gradient gel (Bio-Rad) and transferred into nitrocellulose membranes (Bio-Rad) by semi-dry turbo blot (Bio-Rad). Membranes were blocked with 5% milk powder in TBST for 1 hour at room temperature. Primary antibodies were diluted in blocking buffer (ThermoScientific) and PBS (1:1 ratio) mix and incubated over night at +4° C. Following primary antibodies were used: HER2 (Thermo Scientific, MA5-14057), SORLA (BD Transduction Lab, 612633), α-tubulin (Hybridoma Bank).

[6] = tested on: LAMP1- and CD63 (LAMP3)-positive lysosomes; assay: Immunofluorescent imaging of lysosome aggregation (LAMP1, CD63); format: cell-based; conditions: Lapatinib 24 h, 0.5 mM
Description: (§1) Cells were plated on ibidi 8-well dishes or in some cases in […] ibidi dishes. Cells were fixed with 4% paraformaldehyde (PFA) in phosphate buffer saline (PBS) for 10 min at room temperature. PFA was quenched by incubating with 50 mM NH4Cl for 15 min at room temperature. Cells were blocked and permeabilized with 30% horse serum in PBS +0.3% Triton X-100 15 min at room temperature. Primary antibodies were diluted in 30% horse serum and incubated over night at +4° C. HER2 staining was performed with Herceptin (Roche) or with mouse monoclonal antibody (ThermoScientific; MA5-14057) in dilution of 1:300, LAMP1 antibody (Santa Cruz; SC-20011 (H4A3)) was diluted 1:50, rabbit monoclonal SORLA antibody (CM Petersen Lab, Arhus University) in dilution of 1:300, goat anti-EEA-1 (Santa Cruz; sc-6415) 1:50, goat anti-VPS35 (Abcam; ab10099) 1:300, mouse anti-CD63 (Hybridoma Bank; H5C6) 1:300 and rabbit anti-TGN46 (Abcam; ab50595) 1:300. After primary antibody incubation, cells were washed three times with PBS for 5 min at room temperature and then secondary antibodies were diluted 1:300 in 30% horse serum. […]

[7] = tested on: HER2; assay: Immunofluorescent imaging of HER2 localization; format: cell-based; conditions: BT474, primaquine 24 h, 0.3 and 0.6 mM
Description: as §1

Compound: CC(C)(C)c1ccc(C(=O)CCCN2CCC(OC(c3ccccc3)c3ccccc3)CC2)cc1 [Ebastine]
- 5637 bladder cancer colony growth [1]: significant synergistic effects
- cell viability ([2]; Ebastine 48 hours in combination with SORLA silencing, irrespective of anti-HER2 therapy sensitivity): synergistic effect on cell viability; also recorded: significantly decreased cell viability
- cell death in vitro ([2]; Ebastine combined with SORLA silencing): significantly increased cell death

Compound: CS(=O)(=O)CCNCc1ccc(-c2ccc3ncnc(Nc4ccc(OCc5cccc(F)c5)c(Cl)c4)c3c2)o1 [lapatinib]
- proliferation / drug sensitivity [3]: resistant to Lapatinib
- cell cycle distribution [4]: increased accumulation of cells at G1/G0 and decreased number of cells in S phase
- LAMP1 protein levels [5]: similarly increased
- lysosome aggregation ([6]; BT474 (sensitive)): induced lysosome aggregation
- lysosome aggregation ([6]; MDA-MB-361 (resistant)): not in the resistant MDA-MB-361 cells

Compound: COc1cc(NC(C)CCCN)c2ncccc2c1 (stereo not shown) [primaquine]
- HER2 localization [7]: accumulation of intracellular HER2

Compound: CCOC(=O)N1CCC(=C2c3ccc(Cl)cc3CCc3cccnc32)CC1 [Loratadine]
- 5637 bladder cancer colony growth [1]: significant synergistic effects
